Drawing on PubChem BioAssay (NCI), this text covers GI50 and TGI for 32 compounds.

Molecules are shown by their SMILES.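 Grown in 96-well plates, cells were treated for 48 hours with each compound at five concentrations. Insufficient inhibition: endpoint recorded as highest concentration tested. Abbreviation: GI50, concentration required for 50% inhibition of growth. TGI: total growth inhibition.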

This test concerns T-47D breast. The experiment in a line: inhibition of tumour cell growth, NCI panel, 48 h.
For the compound `COC(=O)/C=C/c1cc(OC)c2c(c1)[C@@H](C(=O)OC)[C@H](c1ccc(OC)c(OC)c1)O2`, the GI50 was 4.99 µM and the TGI was above 100 µM.

Take `COc1cc(/C=C/C(=O)c2ccc(SC)cc2)cc(OC)c1OC`: the GI50 was 9.68 µM and the TGI is 62.9 µM. On to `Cc1cnc2n(c1=O)Cc1ccccc1CO2`, for which the GI50 was 6.79 µM and the TGI came out at 29.3 µM.

`C=C(C=O)[C@@H]1CC=C(C=O)CC1`: the GI50 is 3.06 µM and the TGI worked out at 26.4 µM. For the compound `COc1ccc(/C=N/C2=C(C#N)C(c3ccccc3)c3ccc4ccccc4c3O2)cc1` (configuration not stated), the GI50 was 0.493 µM and the TGI was above 100 µM. Consider `CCc1cc(Cc2cc(CC)cc(C(C)(C)C)c2O)c(O)c(C(C)(C)C)c1`, for which the GI50 was 2.59 µM and the TGI was found to be 7.87 µM. Turning to `COc1ccc2nc3c(cc2c1)C(=O)CC(C(F)(F)F)C3` (configuration not stated), the GI50 is 3.7 µM and the TGI is above 100 µM. For `Nc1c(C(=O)Nc2cccc3ccccc23)sc2nc3c(cc12)CCCCCC3` the same measures were 25.1 µM and above 50 µM. `c1ccc(Oc2cnc3ccccc3n2)cc1`: the GI50 was 75.5 µM and the TGI was above 100 µM. For the compound `Cn1cc(C2=C(c3cn(CCCN/C(N)=N\[N+](=O)[O-])c4ccccc34)C(=O)NC2=O)c2ccccc21`, the GI50 was 2.01 µM and the TGI was above 14.8 µM. As for `O=C1COCCN1c1ccc(NCc2cn(Cc3ccc(F)cc3)c3ccccc23)cc1`, the GI50 was 0.0522 µM. Consider `Nc1nc(-c2ccccc2Cl)cc(-c2ccc(Cl)cc2Cl)n1`, for which the GI50 is 6.58 µM and the TGI is above 100 µM. For `CN(Cc1cccc(Cl)c1)c1ccc(CO)c(Cl)c1` the same measures were 0.746 µM and 5.17 µM. For `Nc1c2c(c(O)c3c1=C(CO)C=N3)=NCCS2=O` (configuration not stated), the GI50 was 0.688 µM and the TGI came out at 2.68 µM. As to `O=c1c(-c2nc3ccccc3[nH]2)cc2ccccc2n1Cc1cn(Cc2ccc(F)cc2)nn1`, the GI50 was 0.206 µM and the TGI was above 100 µM. For the compound `COC(=O)c1cccc(COc2ccc([N+](=O)[O-])cc2Cl)c1`, the TGI was above 100 µM.

Consider `O=c1c(Br)ccc(Br)cc1Br`, for which the GI50 was 0.744 µM and the TGI is 3.71 µM. On to `COc1cc2c(cc1OC)-c1c(c3ccc([N+](=O)[O-])cc3c(=O)n1CCCBr)C2=O`, for which the GI50 is 0.731 µM and the TGI is above 100 µM. `COc1ccc2c(c1)cn1c3ccc(OC)cc3[nH]c(=O)c21`: the GI50 is 1.04 µM and the TGI is 2.61 µM. For `COc1cccc(-c2nn(C)c3sc(C(=O)NCCN4CCN(c5ccccc5F)CC4)cc23)c1`, the GI50 was 4.32 µM and the TGI was above 100 µM. For `C/C(=N\O)c1ccc(Nc2cc(-c3ccccc3)nc3c(O)cccc23)cc1` the same measures were 5.44 µM and 32.9 µM.

For the compound `COc1ccc(-c2nn(C(=O)c3cc(OC)c(OC)c(OC)c3)c3cc(N)ccc23)cc1`, the GI50 was 2.17 µM and the TGI was 7.58 µM. Consider `Cc1cc(=O)[nH]c2c1C(=O)C(=O)C=C2`, for which the GI50 was 58.6 µM and the TGI is above 100 µM.

`COc1cc(Cl)c(C)cc1NC(=O)c1cc2ccccc2cc1O`: the GI50 is 2.07 µM and the TGI worked out at 11.7 µM. `O=C1/C=C/[C@@H](O)[C@@H]2C[C@@H](O)C[C@H]2/C=C/CCCCO1`: the GI50 was 1.14 µM and the TGI worked out at 4.43 µM. Turning to `Nc1c(S(=O)(=O)O)cc2c(c1Cl)C(=O)c1ccccc1C2=O`, the GI50 is above 100 µM and the TGI was above 100 µM. Take `COc1cc(Nc2nccc(-c3cnn4ncccc34)n2)cc(OC)c1`: the GI50 was 0.122 µM and the TGI came out at 1.55 µM. With `CC/C(=C(/c1ccc(Cl)cc1)c1ccc(OCCCN(C)C)cc1)c1ccc(OC)cc1`, the GI50 is 3.76 µM and the TGI was determined as 12.1 µM. Take `Clc1ccc2c(NCCCNCc3ccc4c(c3)OCO4)ccnc2c1`: the GI50 was 2.11 µM and the TGI came to 5.26 µM.

Consider `NC(CSC(c1ccccc1)(c1ccccc1)c1ccc(Br)cc1)C(=O)O` (configuration not stated), for which the GI50 was 0.345 µM and the TGI was above 100 µM.

Take `COc1ccc2c(C(=O)NCCCCCC(=O)O)cc3cc4c(cc3c2c1)OCO4`: the GI50 was 80 µM and the TGI is above 100 µM.

`COc1ccc(S(=O)(=O)Nc2c(/C=C\c3cc(OC)c(OC)c(OC)c3)ccc(OC)c2O)cc1OC`: the GI50 was above 86.9 µM and the TGI is above 100 µM.
